The source of these data is patent publication US11135234B2, “Effective aminoglycoside antibiotic for multidrug-resistant bacteria” (MICROBIAL CHEMISTRY RESEARCH FOUNDATION, priority 2015, dated 2021).

One test relates to S. aureus RN4220. Description: MIC, agar plate dilution method, S. aureus RN4220. In kind it is cell-based, Staphylococcus aureus. Conditions: for MIC: Staphylococcus aureus, RN4220, S. aureus RN4220, Sensitive bacterium, read-out: minimal inhibitory concentration (MIC). The method, then:
(§1) As for the representative compounds of a new aminoglycoside antibiotic of the present invention described in Examples, the minimal inhibitory concentration (MIC, μg/mL) was measured for various assay strains of bacteria using an agar plate dilution method in accordance with the method described in the Japan Society of Chemotherapy.

The subject of the next test is S. aureus RN4220/pMS520. Description: MIC, agar plate dilution method, S. aureus RN4220/pMS520. In kind it is cell-based, Staphylococcus aureus. Particulars: for MIC: Staphylococcus aureus, MRSA, read-out: minimal inhibitory concentration (MIC), S. aureus RN4220/pMS520, MRSA. On the procedure: as §1
For another test, the system named is S. aureus MF490. Description: MIC, agar plate dilution method, S. aureus MF490. In kind it is cell-based, Staphylococcus aureus. Conditions: for MIC: Staphylococcus aureus, MRSA, read-out: minimal inhibitory concentration (MIC). The method, then:
as §1

The subject of the next test is E. faecium ATCC19434. Description: MIC, agar plate dilution method, E. faecium ATCC19434. In kind it is cell-based, Enterococcus faecium. Conditions: for MIC: Enterococcus faecium, ATCC19434, E. faecium ATCC19434, read-out: minimal inhibitory concentration (MIC). The method, then: as §1
The next test relates to E. coli JM109/pMW218. In words: MIC, agar plate dilution method, E. coli JM109/pMW218. In kind it is cell-based, Escherichia coli. Conditions: for MIC: Escherichia coli, JM109/PMW218, E. coli JM109/pMW218, Sensitive bacterium, read-out: minimal inhibitory concentration (MIC). The method, then:
as §1

In test [1] the test system is K. pneumoniae ATCC BAA-1705. In words: MIC, agar plate dilution method, K. pneumoniae ATCC BAA-1705. In kind it is cell-based, Klebsiella pneumoniae. Conditions: for MIC: Klebsiella pneumoniae, ATCCBAA1705, K. pneumoniae ATCC BAA-1705, KPC-producing strain, read-out: minimal inhibitory concentration (MIC). The method, then: as §1
Test [2] deals with K. pneumoniae ATCC BAA-2146. Description: MIC, agar plate dilution method, K. pneumoniae ATCC BAA-2146. Conditions: for MIC: Klebsiella pneumoniae, ATCCBAA2146, K. pneumoniae ATCC BAA-2146, NDM-producing strain, read-out: minimal inhibitory concentration (MIC). In kind it is cell-based, Klebsiella pneumoniae. On the procedure:
as §1

The subject of test [3] is A. baumannii ATCC BAA-1710. In words: MIC, agar plate dilution method, A. baumannii ATCC BAA-1710. Conditions: for MIC: Acinetobacter baumannii, ATCCBAA1710, A. baumannii ATCC BAA-1710, MDRA, read-out: minimal inhibitory concentration (MIC). In kind it is cell-based, Acinetobacter baumannii. The method, then: as §1
For another test, the system named is S. marcescens TH-0447. Description: MIC, agar plate dilution method, S. marcescens TH-0447. In kind it is cell-based, Serratia marcescens. Particulars: for MIC: Serratia marcescens, TH0447, S. marcescens TH-0447, AMK-resistant, read-out: minimal inhibitory concentration (MIC). On the procedure: as §1
Another test deals with S. marcescens GN6944. Description: MIC, agar plate dilution method, S. marcescens GN6944. Particulars: S. marcescens GN6944, GM-resistant; for MIC: Serratia marcescens, read-out: minimal inhibitory concentration (MIC). In kind it is cell-based, Serratia marcescens. The method, then:
as §1

Another test has as its system P. aeruginosa PAO1. Description: MIC, agar plate dilution method, P. aeruginosa PAO1. In kind it is cell-based, Pseudomonas aeruginosa. Particulars: for MIC: Pseudomonas aeruginosa, PAO1, P. aeruginosa PAO1, Sensitive bacterium, read-out: minimal inhibitory concentration (MIC). On the procedure: as §1
The test system of the next test is P. aeruginosa PAO1/GN315. In words: MIC, agar plate dilution method, P. aeruginosa PAO1/GN315. In kind it is cell-based, Pseudomonas aeruginosa. Conditions: for MIC: Pseudomonas aeruginosa, read-out: minimal inhibitory concentration (MIC), P. aeruginosa PAO1/GN315, AMK-resistant. On the procedure:
as §1

The subject of another test is P. aeruginosa MSC17707. Description: MIC, agar plate dilution method, P. aeruginosa MSC17707. In kind it is cell-based, Pseudomonas aeruginosa. Particulars: for MIC: Pseudomonas aeruginosa, MSC17707, P. aeruginosa MSC17707, AMK-resistant, read-out: minimal inhibitory concentration (MIC). The method, then:
as §1

Another test relates to P. aeruginosa MSC01035. Description: MIC, agar plate dilution method, P. aeruginosa MSC01035. Particulars: P. aeruginosa MSC01035, ABK-resistant; for MIC: Pseudomonas aeruginosa, read-out: minimal inhibitory concentration (MIC). In kind it is cell-based, Pseudomonas aeruginosa. The method, then: as §1

Values after ≈ are worked out from the molar mass of the structure shown.

In the case of `CNC1C(O[C@H]2OC(CO)[C@@H](NC(CN)CN)[C@H](O)C2O)O[C@H]2CC(N)[C@@H](O[C@@H]3C(N)C[C@@H](N)C(O)[C@H]3O)OC2C1O` (some centres unmarked) [Compound A4-d, 4″-N-(1,3-diaminopropan-2-yl)apramycin], the MIC with S. aureus RN4220 is 2 µg/mL (≈ 3.27 µM); in the test on S. aureus RN4220/pMS520 it was 2 µg/mL (≈ 3.27 µM); in the test on S. aureus MF490 it was 4 µg/mL (≈ 6.54 µM); with E. faecium ATCC19434, 8 µg/mL (≈ 13.1 µM); in the test on E. coli JM109/pMW218, 1 µg/mL (≈ 1.63 µM); in [1], 2 µg/mL (≈ 3.27 µM). Moreover, the MIC was 1 µg/mL (≈ 1.63 µM) in test [2]; 4 µg/mL (≈ 6.54 µM) in test [3]; 8 µg/mL (≈ 13.1 µM) in the test with S. marcescens TH-0447; 4 µg/mL (≈ 6.54 µM) in the test on S. marcescens GN6944; 4 µg/mL (≈ 6.54 µM) in the test with P. aeruginosa PAO1; 4 µg/mL (≈ 6.54 µM) in the test on P. aeruginosa PAO1/GN315. Moreover, the MIC in the test on P. aeruginosa MSC17707 was determined as 4 µg/mL (≈ 6.54 µM); in the test with P. aeruginosa MSC01035, 8 µg/mL (≈ 13.1 µM).
In the case of `CNC1C(O[C@H]2OC(CO)[C@@H](N(CCN)CCN)[C@H](O)C2O)O[C@H]2CC(N)[C@@H](O[C@@H]3C(N)C[C@@H](N)C(O)[C@H]3O)OC2C1O` (some centres unmarked) [Compound A4-e, 4″-N,N-bis(2-aminoethyl)apramycin], the MIC came to 2 µg/mL (≈ 3.2 µM) with S. aureus RN4220; 2 µg/mL (≈ 3.2 µM) in the test on S. aureus RN4220/pMS520; 4 µg/mL (≈ 6.39 µM) with S. aureus MF490; 16 µg/mL (≈ 25.6 µM) in the test with E. faecium ATCC19434; 1 µg/mL (≈ 1.6 µM) in the test with E. coli JM109/pMW218; 2 µg/mL (≈ 3.2 µM) in test [1]. Besides, the MIC came to 2 µg/mL (≈ 3.2 µM) in test [2]; 4 µg/mL (≈ 6.39 µM) in [3]; 8 µg/mL (≈ 12.8 µM) with S. marcescens TH-0447; 8 µg/mL (≈ 12.8 µM) with S. marcescens GN6944; 4 µg/mL (≈ 6.39 µM) in the test on P. aeruginosa PAO1; 4 µg/mL (≈ 6.39 µM) in the test with P. aeruginosa PAO1/GN315. In addition, the MIC in the test with P. aeruginosa MSC17707 and in the test on P. aeruginosa MSC01035 was 8 µg/mL (≈ 12.8 µM) each time.
For `CNC1C(O[C@H]2OC(CO)[C@@H](N[C@H]3CC[C@@H](N)CC3)[C@H](O)C2O)O[C@H]2CC(N)[C@@H](O[C@@H]3C(N)C[C@@H](N)C(O)[C@H]3O)OC2C1O` (stereo partly drawn) [Compound A4-f, 4″-N-(cis-1,4-4-aminocyclohexyl)apramycin], the MIC in the test on S. aureus RN4220 was found to be 4 µg/mL (≈ 6.28 µM); with S. aureus RN4220/pMS520 it was 4 µg/mL (≈ 6.28 µM); with S. aureus MF490, 8 µg/mL (≈ 12.6 µM); in the test with E. faecium ATCC19434 it was 32 µg/mL (≈ 50.3 µM); in the test on E. coli JM109/pMW218, 1 µg/mL (≈ 1.57 µM); in [1], 2 µg/mL (≈ 3.14 µM). Also, the MIC in test [2] was 1 µg/mL (≈ 1.57 µM); in test [3], 32 µg/mL (≈ 50.3 µM); with S. marcescens TH-0447 it was 16 µg/mL (≈ 25.1 µM); in the test with S. marcescens GN6944, 8 µg/mL (≈ 12.6 µM); with P. aeruginosa PAO1, 16 µg/mL (≈ 25.1 µM); in the test on P. aeruginosa PAO1/GN315, 16 µg/mL (≈ 25.1 µM). In addition, the MIC in the test on P. aeruginosa MSC17707 and in the test on P. aeruginosa MSC01035 was 16 µg/mL (≈ 25.1 µM) in each case.
Regarding `CNC1C(O[C@H]2OC(CO)[C@@H](NC3CNC3)[C@H](O)C2O)O[C@H]2CC(N)[C@@H](O[C@@H]3C(N)C[C@@H](N)C(O)[C@H]3O)OC2C1O` (some centres unmarked) [Compound A4-h, 4″-N-(azetidin-3-yl)apramycin], the “minimal inhibitory concentration (MIC)” value with S. aureus RN4220 (S. aureus RN4220, Sensitive bacterium) came to 4 µg/mL (≈ 6.73 µM); in the test with S. aureus RN4220/pMS520 (S. aureus RN4220/pMS520, MRSA), 4 µg/mL (≈ 6.73 µM); in the test with S. aureus MF490 (S. aureus MF490, MRSA), 16 µg/mL (≈ 26.9 µM); in the test on E. faecium ATCC19434 (E. faecium ATCC19434), 32 µg/mL (≈ 53.8 µM); in the test with E. coli JM109/pMW218 (E. coli JM109/pMW218, Sensitive bacterium), 2 µg/mL (≈ 3.36 µM); in test [1] (K. pneumoniae ATCC BAA-1705, KPC-producing strain), 4 µg/mL (≈ 6.73 µM). The “minimal inhibitory concentration (MIC)” value in test [2] (K. pneumoniae ATCC BAA-2146, NDM-producing strain) amounted to 2 µg/mL (≈ 3.36 µM); in test [3] (A. baumannii ATCC BAA-1710, MDRA), 16 µg/mL (≈ 26.9 µM); in the test on S. marcescens TH-0447 (S. marcescens TH-0447, AMK-resistant), 16 µg/mL (≈ 26.9 µM); in the test with S. marcescens GN6944, 8 µg/mL (≈ 13.5 µM); with P. aeruginosa PAO1 (P. aeruginosa PAO1, Sensitive bacterium), 8 µg/mL (≈ 13.5 µM); with P. aeruginosa PAO1/GN315 (P. aeruginosa PAO1/GN315, AMK-resistant) it was 16 µg/mL (≈ 26.9 µM). Also, the “minimal inhibitory concentration (MIC)” value in the test on P. aeruginosa MSC17707 (P. aeruginosa MSC17707, AMK-resistant) amounted to 16 µg/mL (≈ 26.9 µM); in the test on P. aeruginosa MSC01035, 16 µg/mL (≈ 26.9 µM).
